Activity calls are given as the source filed them. The rule behind the calls is not given here.
Tests used:
[1] = target: T1, Protein cereblon/Stimulator of interferon genes protein (Homo sapiens, UniProt Q96SW2+Q86WV6); experiment: PROTAC activity at CRBN/STING in human THP-1 cells assessed as induction of STING degradation at 10 uM by western blot analysis; assay type: cell-based; conditions: time 3-36 hrs, TDE = time-dependent effect
[2] = target: T1, Protein cereblon/Stimulator of interferon genes protein; experiment: PROTAC activity at CRBN/STING in human THP-1 cells assessed as inhibition of cGAMP-induced TBK1 phosphorylation incubated for 24 hrs followed by stimulation with cGAMP for 24 hrs by western blot analysis; assay type: cell-based; conditions: dose 0.3-20 µM, time 48.0 hrs
[3] = target: T1, Protein cereblon/Stimulator of interferon genes protein; experiment: PROTAC activity at CRBN/STING in human THP-1 cells assessed as inhibition of cGAMP-induced IFN-beta mRNA expression incubated for 1 hr followed by stimulation with cGAMP for 24 hrs by qRT-PCR analysis; assay type: cell-based; conditions: dose 5-20 µM, time 25.0 hrs
[4] = target: T1, Protein cereblon/Stimulator of interferon genes protein; experiment: PROTAC activity at CRBN/STING in human THP-1 cells assessed as inhibition of cGAMP-induced ISG15 mRNA expression incubated for 1 hr followed by stimulation with cGAMP for 24 hrs by qRT-PCR analysis; assay type: cell-based; conditions: dose 5-20 µM, time 25.0 hrs
[5] = target: T1, Protein cereblon/Stimulator of interferon genes protein; experiment: PROTAC activity at CRBN/STING in human THP-1 cells assessed as inhibition of cGAMP-induced ISG56 mRNA expression incubated for 1 hr followed by stimulation with cGAMP for 24 hrs by qRT-PCR analysis; assay type: cell-based; conditions: dose 5-20 µM, time 25.0 hrs
[6] = target: T2, Stimulator of interferon genes protein (Mus musculus) (UniProt Q3TBT3); experiment: Inhibition of STING in mouse RAW264.7 cells assessed as reduction in SR717-induced TBK1 phosphorylation at 0.3 to 20 uM pretreated for 1 hr followed by stimulation with SR717 for 24 hrs by western blot analysis; assay type: cell-based; conditions: dose 0.3-20 µM, time 25.0 hrs
T2 sequence (whole entry): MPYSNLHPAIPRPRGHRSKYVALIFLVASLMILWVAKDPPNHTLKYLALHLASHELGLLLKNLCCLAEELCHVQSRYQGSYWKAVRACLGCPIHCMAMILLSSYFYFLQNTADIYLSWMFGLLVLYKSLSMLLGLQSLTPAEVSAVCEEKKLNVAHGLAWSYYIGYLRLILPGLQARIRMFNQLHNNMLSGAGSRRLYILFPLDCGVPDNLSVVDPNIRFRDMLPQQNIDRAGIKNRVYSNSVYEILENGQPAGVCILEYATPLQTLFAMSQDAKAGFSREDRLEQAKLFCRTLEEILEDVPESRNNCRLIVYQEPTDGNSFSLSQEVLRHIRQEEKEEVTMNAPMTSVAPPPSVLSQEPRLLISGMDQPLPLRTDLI

[7] = target: T2, Stimulator of interferon genes protein (Mus musculus); experiment: Inhibition of STING in mouse RAW264.7 cells assessed as reduction in SR717-induced IRF3 phosphorylation at 0.3 to 20 uM pretreated for 1 hr followed by stimulation with SR717 for 24 hrs by western blot analysis; assay type: cell-based; conditions: dose 0.3-20 µM, time 25.0 hrs
[8] = target: T2, Stimulator of interferon genes protein (Mus musculus); experiment: Inhibition of STING in mouse RAW264.7 cells assessed as reduction in DMXAA-induced IFN-beta mRNA expression at 5 to 20 uM pretreated for 1 hr followed by stimulation with DMXAA for 24 hrs by qRT-CPR analysis; assay type: cell-based; conditions: dose 5-20 µM, time 25.0 hrs
[9] = target: T2, Stimulator of interferon genes protein (Mus musculus); experiment: Inhibition of STING in mouse RAW264.7 cells assessed as reduction in DMXAA-induced IL-6 mRNA expression at 5 to 20 uM pretreated for 1 hr followed by stimulation with DMXAA for 24 hrs by qRT-CPR analysis; assay type: cell-based; conditions: dose 5-20 µM, time 25.0 hrs
[10] = system: THP-1; experiment: PROTAC activity at CRBN/Akt in human THP-1 cells assessed as induction of Akt degradation at 2.5 to 40 uM incubated for 24 hrs by western blot analysis; assay type: cell-based; conditions: dose 2.5-40 µM
[11] = system: HUVEC; experiment: Cytotoxicity against HUVEC assessed as effect on cell viability at <10 uM incubated for 48 hrs by MTT assay; assay type: toxicity, cell-based; conditions: human
[12] = system: HEK-293T; experiment: Cytotoxicity against HEK293T cells assessed as effect on cell viability at <10 uM incubated for 48 hrs by MTT assay; assay type: toxicity, cell-based; conditions: human
[13] = system: Mus musculus; experiment: Anti-inflammatory activity against cisplatin-induced acute kidney injury C57BL/6J mouse model assessed as animal survival rate at 25 to 50 mg/kg measured at 72 hrs post-cisplatin administration (reference value: 66.7%); assay type: functional; conditions: dose 25-50 mg/kg
[14] = Toxicity against cisplatin-induced acute kidney injury C57BL/6J mouse model assessed as decrease in body weight at 25 to 50 mg/kg; assay type: organism-based; conditions: in vivo, dose 25-50 mg/kg
[15] = system: Mus musculus; experiment: Anti-inflammatory activity against cisplatin-induced acute kidney injury C57BL/6J mouse model assessed as decrease in plasma creatinine level at 25 to 50 mg/kg; assay type: functional, organism-based; conditions: dose 25-50 mg/kg
[16] = system: Mus musculus; experiment: Anti-inflammatory activity against C57BL/6J mouse assessed as inhibition of cisplatin-induced hepatic impairment by measuring restoration of AST activity at 25 to 50 mg/kg; assay type: functional, organism-based; conditions: dose 25-50 mg/kg
[17] = system: Mus musculus; experiment: Anti-inflammatory activity against C57BL/6J mouse assessed as inhibition of cisplatin-induced hepatic impairment by measuring restoration of ALT activity at 25 to 50 mg/kg; assay type: functional, organism-based; conditions: dose 25-50 mg/kg
[18] = system: Mus musculus; experiment: Anti-inflammatory activity against C57BL/6J mouse assessed as inhibition of cisplatin-induced hepatic impairment by measuring restoration of gamma-GT activity at 25 to 50 mg/kg; assay type: functional, organism-based; conditions: dose 25-50 mg/kg
[19] = target: T3, Protein cereblon/Stimulator of interferon genes protein (Mus musculus) (UniProt Q3TBT3+Q8C7D2); experiment: In vivo inhibition of STING signaling pathway in C57BL/6J mouse assessed as inhibition of cisplatin-induced TNF-alpha mRNA expression in kidney at 25 to 50 mg/kg by qPCR analysis; assay type: functional, organism-based; conditions: dose 25-50 mg/kg
T3 sequence (Q8C7D2 whole entry, looked up, one chain of several): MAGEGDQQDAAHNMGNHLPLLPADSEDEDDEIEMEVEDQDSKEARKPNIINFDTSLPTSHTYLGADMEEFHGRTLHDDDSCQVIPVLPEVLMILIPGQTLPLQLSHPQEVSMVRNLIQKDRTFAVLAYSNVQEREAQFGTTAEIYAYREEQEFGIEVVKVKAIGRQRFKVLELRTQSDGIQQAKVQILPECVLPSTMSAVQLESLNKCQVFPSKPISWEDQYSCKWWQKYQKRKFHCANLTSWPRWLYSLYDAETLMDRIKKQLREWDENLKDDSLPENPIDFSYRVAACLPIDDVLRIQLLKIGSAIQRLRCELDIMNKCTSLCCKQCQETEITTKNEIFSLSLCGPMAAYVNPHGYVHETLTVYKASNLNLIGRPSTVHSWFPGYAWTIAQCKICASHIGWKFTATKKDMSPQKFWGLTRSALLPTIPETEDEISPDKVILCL

[20] = target: T3, Protein cereblon/Stimulator of interferon genes protein (Mus musculus); experiment: In vivo inhibition of STING signaling pathway in C57BL/6J mouse assessed as inhibition of cisplatin-induced IL-6 mRNA expression in kidney at 25 to 50 mg/kg by qPCR analysis; assay type: functional, organism-based; conditions: dose 25-50 mg/kg
[21] = target: T3, Protein cereblon/Stimulator of interferon genes protein (Mus musculus); experiment: In vivo inhibition of STING signaling pathway in C57BL/6J mouse assessed as inhibition of cisplatin-induced IL-1 beta mRNA expression in kidney at 25 to 50 mg/kg by qPCR analysis; assay type: functional, organism-based; conditions: dose 25-50 mg/kg
[22] = target: T3, Protein cereblon/Stimulator of interferon genes protein (Mus musculus); experiment: In vivo inhibition of STING signaling pathway in C57BL/6J mouse assessed as inhibition of cisplatin-induced ISG15 mRNA expression in kidney at 25 to 50 mg/kg by qPCR analysis; assay type: functional, organism-based; conditions: dose 25-50 mg/kg
[23] = target: T3, Protein cereblon/Stimulator of interferon genes protein (Mus musculus); experiment: In vivo inhibition of STING signaling pathway in C57BL/6J mouse assessed as inhibition of cisplatin-induced ISG56 mRNA expression in kidney at 25 to 50 mg/kg by qPCR analysis; assay type: functional, organism-based; conditions: dose 25-50 mg/kg
[24] = Toxicity against cisplatin-induced acute kidney injury C57BL/6J mouse model assessed as effect on liver morphology at 25 to 50 mg/kg by Hematoxylin-Eosin staining based microscopic analysis; assay type: organism-based; conditions: in vivo, dose 25-50 mg/kg
[25] = target: T1, Protein cereblon/Stimulator of interferon genes protein; experiment: PROTAC activity at CRBN/STING in human THP-1 cells assessed as inhibition of cGAMP-induced IL-6 mRNA expression incubated for 1 hr followed by stimulation with cGAMP for 24 hrs by qRT-PCR analysis; assay type: cell-based; conditions: dose 5-20 µM, time 25.0 hrs

T1 sequence (Q86WV6 whole entry, looked up): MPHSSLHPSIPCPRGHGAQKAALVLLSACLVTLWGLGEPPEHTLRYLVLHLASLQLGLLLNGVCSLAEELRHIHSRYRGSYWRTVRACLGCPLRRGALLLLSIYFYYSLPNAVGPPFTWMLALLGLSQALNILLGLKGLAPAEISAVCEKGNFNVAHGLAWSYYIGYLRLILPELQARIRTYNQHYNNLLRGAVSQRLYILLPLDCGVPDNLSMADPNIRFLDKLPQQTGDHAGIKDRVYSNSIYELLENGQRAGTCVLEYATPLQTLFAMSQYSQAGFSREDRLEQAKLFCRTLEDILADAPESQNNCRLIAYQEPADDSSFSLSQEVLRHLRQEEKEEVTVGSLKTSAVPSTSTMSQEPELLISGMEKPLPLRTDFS
T1 sequence (Q96SW2 whole entry, looked up): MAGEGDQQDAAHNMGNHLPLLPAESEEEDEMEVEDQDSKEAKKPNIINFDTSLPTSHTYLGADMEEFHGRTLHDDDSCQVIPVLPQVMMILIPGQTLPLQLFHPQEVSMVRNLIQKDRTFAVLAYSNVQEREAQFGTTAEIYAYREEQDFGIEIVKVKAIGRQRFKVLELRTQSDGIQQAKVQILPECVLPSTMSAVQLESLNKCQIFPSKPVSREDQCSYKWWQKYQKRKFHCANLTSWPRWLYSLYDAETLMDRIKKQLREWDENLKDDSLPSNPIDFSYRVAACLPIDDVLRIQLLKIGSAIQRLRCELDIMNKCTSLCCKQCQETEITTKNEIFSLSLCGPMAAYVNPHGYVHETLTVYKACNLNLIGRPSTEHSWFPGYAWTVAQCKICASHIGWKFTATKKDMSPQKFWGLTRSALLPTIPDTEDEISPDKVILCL

Q: Which results are given for `O=C1CCC(N2C(=O)c3cccc(OCc4cn(CCCCCC(=O)OCCc5ccc(NC(=O)c6ccc([N+](=O)[O-])o6)cc5)nn4)c3C2=O)C(=O)N1` (stereo not given)?
A: Activity [1]: Tde; Activity [2]: Dose-Dependent Effect; Activity [3]: Dose-Dependent Effect; Activity [4]: Dose-Dependent Effect; Activity [5]: Dose-Dependent Effect; inhibition [6]: Dose-Dependent Effect; inhibition [7]: Dose-Dependent Effect; inhibition [8]: Dose-Dependent Effect; inhibition [9]: Dose-Dependent Effect; Activity [10]: inactive; Activity [11]: Non-Toxic; Activity [12]: Non-Toxic; Survival [13]: 100%; Activity [14]: Toxic; Activity [15]: Active; Activity [16]: Active; Activity [17]: Active; Activity [18]: Active; inhibition [19]: Active; inhibition [20]: Active; inhibition [21]: Active; inhibition [22]: Active; inhibition [23]: Active; Activity [24]: Non-Toxic; Activity [25]: Dose-Dependent Effect

— ChEMBL document CHEMBL6127068, “Discovery of novel nitrofuran PROTAC-like compounds as dual inhibitors and degraders targeting STING” (Eur J Med Chem, 2024)
